# Test results: patent publication US20230393122A1 (priority 2022, published 2023)
# Where two headings read alike, the source gives them in different places.
# Key:
# Format in all cases: cell-based
# [1] = tested on: SARS-CoV-2 Delta variant; test: Viral load reduction assay in EPSC-derived eSTB cells (qRT-PCR of supernatant viral copies); conditions: for IC50: read-out: IC50 for Delta variant in eSTBs
# [2] = tested on: SARS-CoV-2 Omicron variant; test: as above; conditions: for IC50: read-out: IC50 for Omicron variant in eSTBs
# [3] = tested on: SARS-CoV-2 Omicron variant; test: Viral load reduction assay in naïve-eSTB cells; conditions: compared with EPSC-eSTBs
# [4] = tested on: SARS-CoV-2 Delta variant; test: Viral load reduction assay in naïve-eSTB cells; conditions: compared with EPSC-eSTBs
# [5] = Severe acute respiratory syndrome coronavirus 2, 48 h
smiles,measurement,setting,value
CC(C)C[C@H](NC(=O)OCc1ccccc1)C(=O)N[C@@H](CC1CCNC1=O)C(O)S(=O)(=O)O (some centres unmarked) [GC376],IC50,[1],25.5 ± 3.2 nM
same,IC50,[2],31.4 ± 4.1 nM
CC(C)C[C@H](NC(=O)OCc1ccccc1)C(=O)N[C@@H](C[C@@H]1CCNC1=O)C(O)S(=O)(=O)[O-].[Na+] (some centres unmarked) [GC376],IC50 against Omicron variant in naïve-eSTBs,[3],similarly low
same,"Viral copy in the supernatant, Delta (FIG. 17B)",[1]; EPSC-derived eSTB cells,dose-dependent inhibition
same,IC50 against Delta variant in naïve-eSTBs,[4],similarly low
same,"Viral copy in the supernatant, Omicron (FIG. 17B)",[2]; EPSC-derived eSTB cells,dose-dependent inhibition
CCC(CC)COC(=O)[C@H](C)N[P@](=O)(OC[C@H]1O[C@@](C#N)(c2ccc3c(N)ncnn23)[C@H](O)[C@@H]1O)Oc1ccccc1 [remdesivir],IC50,[1]; [5],5.5 ± 1.2 nM
same,IC50,[2]; [5],4.1 ± 1.5 nM
